Results on one molecule are retold here after ChEMBL document CHEMBL4024785 (J Med Chem, 2018).

The structures appear in SMILES notation.

Usually Ki stands for the equilibrium dissociation constant of an inhibitor or competing ligand from its target.

Targets include Carbonic anhydrase 12 (Homo sapiens, UniProt O43570); Carbonic anhydrase 9 (Homo sapiens, UniProt Q16790); Carbonic anhydrase 1 (Homo sapiens, UniProt P00915).

Chain of Carbonic anhydrase 1 (P00915 whole entry): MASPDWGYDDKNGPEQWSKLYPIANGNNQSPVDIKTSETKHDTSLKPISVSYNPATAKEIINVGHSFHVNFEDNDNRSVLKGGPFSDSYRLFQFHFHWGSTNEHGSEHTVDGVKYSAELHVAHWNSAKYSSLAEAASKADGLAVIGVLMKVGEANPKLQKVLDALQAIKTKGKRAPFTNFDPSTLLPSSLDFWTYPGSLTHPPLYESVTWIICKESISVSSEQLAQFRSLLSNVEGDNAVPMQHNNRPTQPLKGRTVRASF
Chain of Carbonic anhydrase 12 (O43570 whole entry): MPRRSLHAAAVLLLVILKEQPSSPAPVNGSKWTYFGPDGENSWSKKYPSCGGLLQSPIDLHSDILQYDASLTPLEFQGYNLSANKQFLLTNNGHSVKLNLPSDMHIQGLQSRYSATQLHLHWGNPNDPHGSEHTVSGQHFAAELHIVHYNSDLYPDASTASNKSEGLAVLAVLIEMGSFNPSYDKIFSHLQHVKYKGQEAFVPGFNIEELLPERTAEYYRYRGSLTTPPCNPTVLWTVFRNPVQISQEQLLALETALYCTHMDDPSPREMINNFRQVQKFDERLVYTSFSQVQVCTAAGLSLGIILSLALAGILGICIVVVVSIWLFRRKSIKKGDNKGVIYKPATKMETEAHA
Description for Carbonic anhydrase 12: Inhibition of recombinant human carbonic anhydrase 12 expressed in Escherichia coli L21-GOLD (DE3) incubated for 10 mins prior to testing by stopped-flow CO2 hydration assay
Description for Carbonic anhydrase 9: Inhibition of recombinant human carbonic anhydrase 9 expressed in Escherichia coli L21-GOLD (DE3) incubated for 10 mins prior to testing by stopped-flow CO2 hydration assay

In the case of `O=C1NS(=O)(=O)c2ccccc21` [SACCHARIN], the results for the inhibition constant (Ki) at Carbonic anhydrase 12, on Carbonic anhydrase 9 and on Carbonic anhydrase 1 were 650 nM, 100 nM and above 20000 nM, respectively.
